# pIC50: −log10 of the molar value. Like-named read-outs stand apart in the source and are kept apart here.
# Legend:
# [1] = biological target: T1, BTK enzyme (recombinant full-length BTK, hBTK) (Homo sapiens, UniProt Q06187); test: BTK enzyme activity assay, LANCE TR-FRET; type: biochemical; settings: 50 pM hBTK, 2 μM biotin-A5-peptide, 25 μM ATP; 60 min compound & enzyme incubation; read-out: IC50 BTK activity value
# T1 construct: recombinant protein from baculovirus-transfected Sf9 cells: full-length BTK, 6HIS-tag cleaved; 6HIS (cleaved yes); made in house; host or cells: baculovirus-transfected Sf9 cells
# HeLa cells = test: [3H]Adenosine uptake functional cellular assay; type: cell-based; settings: accumulation of [3H]adenosine into HeLa cells, compound range 10 μM to […], read-out: Adenosine uptake inhibition IC50
# Protocol: Compounds are also screened in an adenosine uptake functional cellular assay using the protocol described below. The adenosine uptake inhibition assay may be used to identify compounds with the potential for a negative cardiovascular side effect.
# Adenosine uptake activity was determined by monitoring the accumulation of tritiated adenosine into HeLa cells (ATCC catalog # CCL-2) using a PMT-based radiometric detection instrument. […] These cells were incubated overnight at 37° C. in a humidified atmosphere with 5% (v/v) CO2. After this time the growth medium was removed and replaced with 40 μL assay medium comprising: Hanks balanced salts solution (HBSS; Thermo Fisher Catalog # SH30268.01)+5% (v/v) FBS. […] 40 μL of compound in the assay medium was dispensed into individual wells of the Cytostar-T plates and the plates were incubated for 30 minutes under ambient laboratory conditions. Following this incubation, 20 μL of 500 nM [^3H]adenosine (American Radiolabeled Chemicals Inc. Catalog # ART0287) was added in the assay medium and incubated for a further 60 minutes under ambient laboratory conditions. The amount of radiolabel accumulation was then determined using a Perkin Elmer Topcount NXT microplate reader. In brief, HeLa cells adhere to the bottom of the Cytostar-T plate, uptake of [^3H]adenosine into these cells brings the radiolabel into sufficient proximity to excite the scintillant in the base of the plates. These events are captured by single PMT, time-resolved coincidence counting. IC50 values were determined by 4 parameter robust fit of counts per second values vs. (Log10) compound concentrations.
# T1 sequence (Q06187 whole entry): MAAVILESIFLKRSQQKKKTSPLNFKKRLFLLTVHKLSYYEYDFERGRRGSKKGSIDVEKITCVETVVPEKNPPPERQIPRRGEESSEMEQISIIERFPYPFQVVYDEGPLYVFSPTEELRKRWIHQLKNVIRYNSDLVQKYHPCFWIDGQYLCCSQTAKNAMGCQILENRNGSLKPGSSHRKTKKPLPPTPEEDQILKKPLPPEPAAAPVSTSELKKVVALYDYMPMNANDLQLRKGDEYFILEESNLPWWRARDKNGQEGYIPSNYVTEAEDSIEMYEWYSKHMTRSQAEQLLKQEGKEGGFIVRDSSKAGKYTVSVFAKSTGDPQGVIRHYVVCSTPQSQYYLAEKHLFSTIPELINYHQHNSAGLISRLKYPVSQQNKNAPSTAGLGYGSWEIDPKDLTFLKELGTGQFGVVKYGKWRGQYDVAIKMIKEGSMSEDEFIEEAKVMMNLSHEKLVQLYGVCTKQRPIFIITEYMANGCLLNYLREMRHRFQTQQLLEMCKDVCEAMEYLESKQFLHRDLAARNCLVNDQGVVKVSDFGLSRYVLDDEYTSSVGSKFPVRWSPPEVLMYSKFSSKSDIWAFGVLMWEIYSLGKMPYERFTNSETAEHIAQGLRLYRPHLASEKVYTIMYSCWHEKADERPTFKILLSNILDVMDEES
pIC50 [1],pIC50 (HeLa cells),"pIC50 (HeLa cells; Homo sapiens, HeLa)",Compound
8.72,5.15,–,"4-(8-amino-3-((6R,8aS)-3-oxooctahydroindolizin-6-yl)imidazo[1,5-a]pyrazin-1-yl)-3-(2-methoxyethoxy)-N-(4-(trifluoromethyl)pyridin-2-yl)benzamide [Example 199]"
10.24,–,7.14,"CC1CC(=O)N2C[C@H](c3nc(-c4ccc(C(=O)Nc5cc(C(F)(F)F)ccn5)cc4)c4c(N)nccn34)CC[C@H]12 (stereo in doubt) [Example 63, 4-{8-amino-3-[(1S,6R,8aR)-1-methyl-3-oxooctahydroindolizin-6-yl]imidazo[1,5-a]pyrazin-1-yl}-N-[4-(trifluoromethyl)pyridin-2-yl]benzamide]"
10.07,–,6.88,"CC1CC(=O)N2C[C@H](c3nc(-c4ccc(C(=O)Nc5cc(C(F)(F)F)ccn5)cc4)c4c(N)nccn34)CC[C@@H]12 (stereo in doubt) [Example 65, 4-{8-amino-3-[(1R,6R,8aS)-1-methyl-3-oxooctahydroindolizin-6-yl]imidazo[1,5-a]pyrazin-1-yl}-N-[4-(trifluoromethyl)pyridin-2-yl]benzamide]"
8.14,–,6.10,"CN1C[C@@H]2CC[C@@H](c3nc(-c4ccc(C(=O)Nc5cc(C(F)(F)F)ccn5)cc4)c4c(N)nccn34)CN2C1=O [Example 3, 4-(8-amino-3-((6R,8aS)-2-methyl-3-oxooctahydroimidazo[1,5-a]pyridin-6-yl)imidazo[1,5-a]pyrazin-1-yl)-N-(4-(trifluoromethyl)pyridin-2-yl)benzamide]"
10.00,–,7.21,"Nc1nccn2c([C@@H]3CC[C@H]4CCC(=O)N4C3)nc(-c3ccc(C(=O)Nc4cc(C(F)(F)F)ccn4)cc3)c12 [Example 4, 4-(8-amino-3-((6R,8aS)-3-oxooctahydroindolizin-6-yl)imidazo[1,5-a]pyrazin-1-yl)-N-(4-(trifluoromethyl)pyridin-2-yl)benzamide]"
8.70,–,6.74,"Nc1nccn2c([C@@H]3CC[C@H]4CCC(=O)N4C3)nc(-c3ccc(C(=O)Nc4ccccn4)cc3)c12 [Example 6, 4-(8-amino-3-((6R,8aS)-3-oxooctahydroindolizin-6-yl)imidazo[1,5-a]pyrazin-1-yl)-N-(pyridin-2-yl)benzamide]"
8.66,–,6.45,"Cc1cnc(NC(=O)c2ccc(-c3nc([C@@H]4CC[C@H]5CCC(=O)N5C4)n4ccnc(N)c34)cc2)s1 [Example 8, 4-(8-amino-3-((6R,8aS)-3-oxooctahydroindolizin-6-yl)imidazo[1,5-a]pyrazin-1-yl)-N-(5-methylthiazol-2-yl)benzamide]"
6.71,–,6.54,"Nc1nccn2c([C@H]3CC[C@@H]4CCC(=O)N4C3)nc(-c3ccc(C(=O)Nc4ccccn4)cc3)c12 [Example 9, 4-(8-amino-3-((6S,8aR)-3-oxooctahydroindolizin-6-yl)imidazo[1,5-a]pyrazin-1-yl)-N-(pyridin-2-yl)benzamide]"
7.83,–,5.87,"Nc1nccn2c([C@H]3CC[C@H]4CCC(=O)N4C3)nc(-c3ccc(C(=O)Nc4cc(C(F)(F)F)ccn4)cc3)c12 [Example 10, 4-(8-amino-3-((6S,8aS)-3-oxooctahydroindolizin-6-yl)imidazo[1,5-a]pyrazin-1-yl)-N-(4-(trifluoromethyl)pyridin-2-yl)benzamide]"
7.82,–,6.29,"Nc1nccn2c([C@@H]3CC[C@@H]4CCC(=O)N4C3)nc(-c3ccc(C(=O)Nc4cc(C(F)(F)F)ccn4)cc3)c12 [Example 11, 4-(8-amino-3-((6R,8aR)-3-oxooctahydroindolizin-6-yl)imidazo[1,5-a]pyrazin-1-yl)-N-(4-(trifluoromethyl)pyridin-2-yl)benzamide]"
9.68,–,7.14,"N#Cc1ccnc(NC(=O)c2ccc(-c3nc([C@@H]4CC[C@H]5CCC(=O)N5C4)n4ccnc(N)c34)c(F)c2)c1 [Example 15, 4-{8-amino-3-[(6R,8aS)-3-oxooctahydroindolizin-6-yl]imidazo[1,5-a]pyrazin-1-yl}-N-(4-cyanopyridin-2-yl)-3-fluorobenzamide]"
9.70,–,7.12,"Nc1nccn2c([C@@H]3CC[C@H]4CCC(=O)N4C3)nc(-c3ccc(C(=O)Nc4cc(C5CC5)ccn4)cc3F)c12 [Example 16, 4-{8-amino-3-[(6R,8aS)-3-oxooctahydroindolizin-6-yl]imidazo[1,5-a]pyrazin-1-yl}-N-(4-cyclopropylpyridin-2-yl)-3-fluorobenzamide]"
9.80,–,7.20,"CCc1ccnc(NC(=O)c2ccc(-c3nc([C@@H]4CC[C@H]5CCC(=O)N5C4)n4ccnc(N)c34)cc2)c1 [Example 18, 4-{8-amino-3-[(6R,8aS)-3-oxooctahydroindolizin-6-yl]imidazo[1,5-a]pyrazin-1-yl}-N-(4-ethylpyridin-2-yl)benzamide]"
9.74,–,6.63,"Nc1nccn2c([C@@H]3CC[C@H]4CCC(=O)N4C3)nc(-c3ccc(C(=O)Nc4cc(C5CC5)ccn4)cc3)c12 [Example 19, 4-{8-amino-3-[(6R,8aS)-3-oxooctahydroindolizin-6-yl]imidazo[1,5-a]pyrazin-1-yl}-N-(4-cyclopropylpyridin-2-yl)benzamide]"
8.66,–,5.62,Nc1nccn2c([C@@H]3CC[C@H]4CCC(=O)N4C3)nc(-c3ccc(C(=O)Nc4nccc(C(F)(F)F)n4)cc3)c12 [Example 20]
9.68,–,6.63,"CC(F)(F)c1ccnc(NC(=O)c2ccc(-c3nc([C@@H]4CC[C@H]5CCC(=O)N5C4)n4ccnc(N)c34)c(F)c2)c1 [Example 21, 4-{8-amino-3-[(6R,8aS)-3-oxooctahydroindolizin-6-yl]imidazo[1,5-a]pyrazin-1-yl}-N-[4-(1,1-difluoroethyl)pyridin-2-yl]-3-fluorobenzamide]"
–,–,6.91,"CN1CC[C@@H]2CC[C@@H](c3nc(-c4ccc(C(=O)Nc5cc(C(F)(F)F)ccn5)cc4)c4c(N)nccn34)CN2C1=O [Example 83, 4-(8-amino-3-((4aS,7R)-2-methyl-1-oxooctahydro-1H-pyrido[1,2-c]pyrimidin-7-yl)imidazo[1,5-a]pyrazin-1-yl)-N-(4-(trifluoromethyl)pyridin-2-yl)benzamide]"
–,–,6.81,"CN1CC[C@H]2CC[C@H](c3nc(-c4ccc(C(=O)Nc5cc(C(F)(F)F)ccn5)cc4)c4c(N)nccn34)CN2C1=O [Example 84, 4-(8-amino-3-((4aR,7S)-2-methyl-1-oxooctahydro-1H-pyrido[1,2-c]pyrimidin-7-yl)imidazo[1,5-a]pyrazin-1-yl)-N-(4-(trifluoromethyl)pyridin-2-yl)benzamide]"
–,–,6.16,"COc1cc(C(=O)Nc2cc(C(F)(F)F)ccn2)ccc1-c1nc([C@@H]2CC[C@H]3CCC(=O)N3C2)n2ccnc(N)c12 [Example 88, 4-(8-amino-3-((6R,8aS)-3-oxooctahydroindolizin-6-yl)imidazo[1,5-a]pyrazin-1-yl)-3-methoxy-N-(4-(trifluoromethyl)pyridin-2-yl)benzamide]"
6.62,–,–,"Nc1nccn2c([C@@H]3CC[C@H]4CCC(=O)N4C3)nc(-c3ccc(C(=O)Nc4cc(C(F)(F)F)no4)cc3)c12 [Example 174, 4-{8-amino-3-[(6R,8aS)-3-oxooctahydroindolizin-6-yl]imidazo[1,5-a]pyrazin-1-yl}-N-[3-(trifluoromethyl)isoxazol-5-yl]benzamide]"
9.03,–,–,"Cn1nc(NC(=O)c2ccc(-c3nc([C@@H]4CC[C@H]5CCC(=O)N5C4)n4ccnc(N)c34)cc2)cc1C1CC1 [Example 181, 4-{8-amino-3-[(6R,8aS)-3-oxooctahydroindolizin-6-yl]imidazo[1,5-a]pyrazin-1-yl}-N-(5-cyclopropyl-1-methyl-1H-pyrazol-3-yl)benzamide]"
6.81,–,–,"CCOC(=O)c1oc(NC(=O)c2ccc(-c3nc([C@@H]4CC[C@H]5CCC(=O)N5C4)n4ccnc(N)c34)cc2)nc1C(F)(F)F [Example 184, ethyl 2-{[(4-{8-amino-3-[(6R,8aS)-3-oxooctahydroindolizin-6-yl]imidazol[1,5-a]pyrazin-1-yl}phenyl)carbonyl]amino}-4-(trifluoromethyl)-1,3-oxazole-5-carboxylate]"
8.16,–,–,"Cc1cc(C(=O)Nc2cc(C(F)(F)F)n(C)n2)ccc1-c1nc([C@@H]2CC[C@H]3CCC(=O)N3C2)n2ccnc(N)c12 [Example 186, 4-{8-amino-3-[(6R,8aS)-3-oxooctahydroindolizin-6-yl]imidazo[1,5-a]pyrazin-1-yl}-3-methyl-N-[1-methyl-5-(trifluoromethyl)-1H-pyrazol-3-yl]benzamide]"
9.70,–,–,"CCOc1cc(C(=O)Nc2cc(C(F)(F)F)ccn2)ccc1-c1nc([C@@H]2CC[C@@H]3N(C2)C(=O)CC3(C)C)n2ccnc(N)c12 [Example 222, 4-(8-amino-3-((6R,8aS)-1,1-dimethyl-3-oxooctahydroindolizin-6-yl)imidazo[1,5-a]pyrazin-1-yl)-3-ethoxy-N-(4-(trifluoromethyl)pyridin-2-yl)benzamide]"
